According to US7150974B1, “Parathyroid hormone receptor binding method” (The General Hospital Corporation, priority 1991, dated 2006):

Target: T1, carboxy-terminally-truncated rat receptor, R480 (Rattus norvegicus, UniProt P25961)
T1 construct: R480, by standard PCR technology using R15B as a template and an upstream primer containing a stop codon inserted at position 481; expressed in transfected cells
T1 sequence (P25961 27-480): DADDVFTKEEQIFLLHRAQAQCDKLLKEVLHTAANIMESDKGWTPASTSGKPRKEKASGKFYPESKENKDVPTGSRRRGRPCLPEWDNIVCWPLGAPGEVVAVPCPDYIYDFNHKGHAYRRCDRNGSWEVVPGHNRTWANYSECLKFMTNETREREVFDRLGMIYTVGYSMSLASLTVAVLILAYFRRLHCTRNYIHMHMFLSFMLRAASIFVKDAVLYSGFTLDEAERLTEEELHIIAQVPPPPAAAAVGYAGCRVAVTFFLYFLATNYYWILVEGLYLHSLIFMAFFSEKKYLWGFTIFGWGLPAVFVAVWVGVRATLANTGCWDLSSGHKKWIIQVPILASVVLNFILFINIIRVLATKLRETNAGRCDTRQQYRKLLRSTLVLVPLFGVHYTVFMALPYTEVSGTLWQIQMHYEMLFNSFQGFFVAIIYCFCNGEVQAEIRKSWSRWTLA
Assay: Binding to carboxy-terminally-truncated rat receptor R480 in COS-7 and CHO cells
Conditions: COS-7 (transient) and CHO (stable) cells
Protocol: [Nle^8,Nle^18,Tyr^34]bPTH-(1-34)amide (NlePTH), and [Tyr^36]PTHrP(1-36)amide(PTHrP) were iodinated with Na^125I (carrier free, New England Nuclear, Boston, Mass.) as previously reported (Segre et al., J. Biol. Chem. 254: 6980, 1979), and purified by reverse-phase HPLC. In brief, the labeled peptide was dissolved in 0.1% trifluoracetic acid (TFA), applied to a C18 Sep-pak cartridge (Waters Associates, Inc., Milford, Mass.) and eluted with a solution of 60% acetonitrile in 0.1% TFA. After lyophilization, the radioligand then was applied to C18-μBondapak column (3.9 mm×30 cm. Waters Associates) and eluted over 30 min with a linear gradient of 30-50% acetonitrile-0.1% TFA at a flow rate of 2 ml/min. The radioligand eluted in two peaks; the first peak, which eluted at approximately 38% acetonitrile, was used in these studies because it gave higher total and specific bindings. […]
Incubations were terminated by aspirating the buffer, and repeatedly (×3) washing the culture dishes, containing the adherent cells with chilled 0.9% NaCl solution, over a 15 sec period. Cell-bound radioactivity was recovered by the sequential addition (×3) of 1 N NaOH (200 μl) to each well. […] A second and third extraction with 1 N NaOH (200 μl) were combined with the first, and the total radioactivity was counted in a γ-spectrometer (Packard Instruments, Downers Grove, Ill.). […]

[Nle^8,18, Tyr^34]bPTH(1-34)amide was tested, and the “affinity for truncated receptor R480 compared with wild type receptor RB” value was “equivalent affinities”.
